Legend:
Assay type in all cases: binding
Brd2(2) Leu383-Ile = Brd2(2) Leu383-Ile (Homo sapiens, UniProt P25440, L383I); assay: DSF thermal shift; parameters: Plasmids of the eight single BET bromodomain constructs Brd2(1), Brd2(2), Brd3(1), Brd3(2); His6 (N); made in house; host or cells: E. coli BL21(DE3); settings: mutant
Brd2(1) Leu110-Ile = Brd2(1) Leu110-Ile (Homo sapiens, UniProt P25440, L110I); assay: DSF thermal shift; parameters: Plasmids of the eight single BET bromodomain constructs Brd2(1), Brd2(2), Brd3(1), Brd3(2); His6 (N); made in house; host or cells: E. coli BL21(DE3); settings: mutant
Brd2(1) Leu110-Ile, sequence (P25440 74-180 L110I limits assumed): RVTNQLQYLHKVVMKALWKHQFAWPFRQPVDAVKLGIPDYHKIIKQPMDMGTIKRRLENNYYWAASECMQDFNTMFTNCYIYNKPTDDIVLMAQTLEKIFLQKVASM

Brd3(1) = target: T1, Brd3(1) (Homo sapiens, UniProt Q15059); assay: ITC reverse titration of protein into compound; settings: ITC 30° C., 1% DMSO
T1 construct: Plasmids of the eight single BET bromodomain constructs Brd2(1), Brd2(2), Brd3(1), Brd3(2); His6 (N); made in house; host or cells: E. coli BL21(DE3)
T1 sequence (Q15059 34-140 limits assumed): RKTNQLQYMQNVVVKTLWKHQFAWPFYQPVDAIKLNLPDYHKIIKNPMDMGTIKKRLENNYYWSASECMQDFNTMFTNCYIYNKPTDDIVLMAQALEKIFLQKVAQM
Description: Results obtained were very promising, showing small shifts from 1.2° C. to a maximum of 2.6° C. for all the eight BET wild types and shifts from 5.4° C. to 13.4° C. for all the leucine to alanine mutants.
For all mutants, protein was titrated at a concentration between 150-200 μM into a solution of the compound at a concentration of 15-20 μM. In the case of the wild types, protein was titrated at a concentration of 350-400 μM into a solution of the compound between 15-20 μM. FIG. 11 is an illustrative example of the curves obtained for the Brd3(1) bromodomain construct and its respective leucine to alanine mutant titrated into compound 11. We can easily observe a hyperbolic shape for the titration of wild type Brd3(1) into compound 11, corresponding to a low affinity interaction, while for Brd3(1)*(Leu070-Ala) we can easily observe a sharp sigmoidal behaviour corresponding to a high affinity interaction. Furthermore, there is a clear difference in the ΔH produced by each interaction. (ΔH=−22 kcal/mol vs. mutant compared to −7 kcal/mol vs. wild type).
ITC experiments were carried out on a ITC200 instrument from MicroCal™ Experiments were conducted at 3 different temperatures 15° C., 25° C. and 30° C., while stirring at 1000 rpm. Buffers of proteins, peptide and compounds were matched to 20 mM HEPES pH 7.5 at 25° C. and 100 mM NaCl. Frozen protein was buffer exchanged as described for the DSF experiments. Each titration comprised 1 initial injection of 0.4 μl lasting 0.8 s, followed by 19 injections of 2 μl lasting 4 s each at 2 min intervals. The initial injection was discarded during data analysis. Standard and reverse titrations were conducted depending on the binding partners.
Reverse titrations were conducted to test the binding of the known ligands and the novel chemical probes to the wild types and the mutants. Experiments were carried out either at 25° C. or 30° C. For strong binders, a concentration of 150-200 μM of the protein was injected into a solution of 15-20 μM compound. […] In cases where the compound was solubilized in dimethyl sulfoxide, DMSO concentration was adjusted to 1% both in the syringe and in the cell.
All the data was fitted to a single binding site model using the Microcal LLC ITC200 Origin software provided by the manufacturer to yield enthalpies of binding (ΔH) and binding constants (Kas). Further thermodynamic parameters were calculated from these values (changes in entropy ΔS, changes in free energy AG and dissociation constants (Kds)).

Brd2(2) Leu383-Ile, sequence (P25440 344-453 L383I limits assumed): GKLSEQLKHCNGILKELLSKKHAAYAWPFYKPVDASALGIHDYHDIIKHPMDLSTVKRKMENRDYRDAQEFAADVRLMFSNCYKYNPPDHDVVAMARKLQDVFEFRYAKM

SMILES	Thermal stabilisation brd2(2)V383I (Table 1); Brd2(2) Leu383-Ile (text) (Brd2(2) Leu383-Ile)	ΔTm Brd2(2)*(Leu383-Ile) (Brd2(2) Leu383-Ile)	Thermal stabilisation brd2(2)V383I (Table 1); Brd2(2) Leu383-Ile (text) (Brd2(2) Leu383-Ile; listed as compound 7)	Thermal stabilisation brd2(1)L110I (Brd2(1) Leu110-Ile)	ΔTm Brd2(1)*(Leu110-Ile) (Brd2(1) Leu110-Ile)	Thermal stabilisation brd2(1)L110I (Brd2(1) Leu110-Ile; listed as compound 7)	ΔH wild type Brd3(1) (Brd3(1))
COC(=O)[C@H](C)[C@@H]1N=C(c2ccc(Cl)cc2)c2cc(OC)ccc2-n2c(C)nnc21 (racemic) [Compound 7, (+−)-methyl (R)-2-((S)-6-(4-chlorophenyl)-8-methoxy-1-methyl-4H-benzo[f][1,2,4]triazolo[4,3-a][1,4]diazepin-4-yl)propanoate]	9.6 ± 0.1 °C	9.6 ± 0.1 K	9.6 °C	5.7 ± 0.7 °C	5.7 ± 0.7 K	5.7 °C	–
CC[C@@H](C(=O)OC)[C@@H]1N=C(c2ccc(Cl)cc2)c2cc(OC)ccc2-n2c(C)nnc21 (racemic) [Compound 11, (+−)-methyl (R)-2-((S)-6-(4-chlorophenyl)-8-methoxy-1-methyl-4H-benzo[f][1,2,4]triazolo[4,3-a][1,4]diazepin-4-yl)butanoate]	–	–	–	–	–	–	-7 kcal/mol

From patent US20170122958A1, “Enzymes Functional Probes” (University of Dundee, priority 2013, published 2017)
